Measured values taken from patent US20260265265A1, “NOVEL BENZIMIDAZOLONE DERIVATIVE COMPOUND AS AUTOTAXIN INHIBITOR” (LG CHEM, LTD., priority 2023, published 2026).

Target: T1, Recombinant Human ENPP-2/Autotaxin (Homo sapiens, UniProt Q13822)
T1 construct: purchased R&D systems 5255-EN
Experiment: LysoPLD activity measurement (autotaxin enzyme inhibition, choline release, TOOS reagent)
Format: biochemical
Settings: LysoPLD inhibitory activity; substrate 14:0 LysoPC; absorbance at 555 nm
Method in brief: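 Autotaxin lysoPLD activity was read as choline released from 14:0 LysoPC, detected by TOOS reagent absorbance. Compound was preincubated 30 min, then substrate diluted to 300 μM was added and the reaction ran 90 minutes at 37° C. Controls contained 1% DMSO.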

Row | Compound | IC50 [nM]
1 | O=C(O)c1cccc(C2(n3c(=O)n(-c4ccc(C5CCOCC5)nc4)c4cc(Cl)ccc43)CC2)c1 [Example 261, 3-(1-(5-chloro-2-oxo-3-(6-(tetrahydro-2H-pyran-4-yl)pyridin-3-yl)-2,3-dihydro-1H-benzo[d]imidazol-1-yl)cyclopropyl)benzoic acid] | 10 to 100
2 | O=C(O)c1cc(F)cc(C2(n3c(=O)n(-c4ccc(C5CCOCC5)nc4)c4cc(Cl)ccc43)CC2)c1 [Example 262, 3-(1-(5-chloro-2-oxo-3-(6-(tetrahydro-2H-pyran-4-yl)pyridin-3-yl)-2,3-dihydro-1H-benzo[d]imidazol-1-yl)cyclopropyl)-5-fluorobenzoic acid] | 10 to 100
3 | O=C(O)c1cccc(C2(n3c(=O)n(-c4ccc(-c5nnc(C6CC6)o5)cc4)c4cc(Cl)ccc43)CC2)c1 [Example 263, 3-(1-(5-chloro-3-(4-(5-cyclopropyl-1,3,4-oxadiazol-2-yl)phenyl)-2-oxo-2,3-dihydro-1H-benzo[d]imidazol-1-yl)cyclopropyl)benzoic acid] | < 10
4 | O=C(O)c1cccc(C2(n3c(=O)n(-c4ccc(-c5nnc(C6CCCCCC6)o5)cc4)c4cc(Cl)ccc43)CC2)c1 [Example 264, 3-(1-(5-chloro-3-(4-(5-cycloheptyl-1,3,4-oxadiazol-2-yl)phenyl)-2-oxo-2,3-dihydro-1H-benzo[d]imidazol-1-yl)cyclopropyl)benzoic acid] | 10 to 100
5 | O=C(O)c1cccc(C2(n3c(=O)n(-c4ccc(-c5nnc(C6CCCCC6)o5)cc4)c4cc(Cl)ccc43)CC2)c1 [Example 265, 3-(1-(5-chloro-3-(4-(5-cyclohexyl-1,3,4-oxadiazol-2-yl)phenyl)-2-oxo-2,3-dihydro-1H-benzo[d]imidazol-1-yl)cyclopropyl)benzoic acid] | 10 to 100
6 | O=C(O)c1cccc(C2(n3c(=O)n(-c4ccc(-c5nnc(C6CCCC6)o5)cc4)c4cc(Cl)ccc43)CC2)c1 [Example 266, 3-(1-(5-chloro-3-(4-(5-cyclopentyl-1,3,4-oxadiazol-2-yl)phenyl)-2-oxo-2,3-dihydro-1H-benzo[d]imidazol-1-yl)cyclopropyl)benzoic acid] | < 10
7 | O=C(O)c1cccc(C2(n3c(=O)n(-c4ccc(-c5nnc(C6CCOCC6)o5)cc4)c4cc(Cl)ccc43)CC2)c1 [Example 267, 3-(1-(5-chloro-2-oxo-3-(4-(5-(tetrahydro-2H-pyran-4-yl)-1,3,4-oxadiazol-2-yl)phenyl)-2,3-dihydro-1H-benzo[d]imidazol-1-yl)cyclopropyl)benzoic acid] | < 10
8 | O=C(O)c1cccc(C2(n3c(=O)n(-c4ccc(-c5nnc(C6CCOCC6)o5)cc4)c4cc(Cl)ccc43)CC2)c1F [Example 268, 3-(1-(5-chloro-2-oxo-3-(4-(5-(tetrahydro-2H-pyran-4-yl)-1,3,4-oxadiazol-2-yl)phenyl)-2,3-dihydro-1H-benzo[d]imidazol-1-yl)cyclopropyl)-2-fluorobenzoic acid] | < 10
9 | CCCn1cc(-c2ccc(-n3c(=O)n(C4(c5cccc(C(=O)O)c5)CC4)c4ccc(Cl)cc43)cc2)cn1 [Example 269, 3-(1-(5-chloro-2-oxo-3-(4-(1-propyl-1H-pyrazol-4-yl)phenyl)-2,3-dihydro-1H-benzo[d]imidazol-1-yl)cyclopropyl)benzoic acid] | < 10
10 | CCCn1cc(-c2ccc(-n3c(=O)n(C4(c5cccc(C(=O)O)c5)CC4)c4ncc(Cl)cc43)cc2)cn1 [Example 270, 3-(1-(6-chloro-2-oxo-1-(4-(1-propyl-1H-pyrazol-4-yl)phenyl)-1,2-dihydro-3H-imidazo[4,5-b]pyridin-3-yl)cyclopropyl)benzoic acid] | < 10
11 | CN(C)c1ccc(-n2c(=O)n(C3(c4cc(F)cc(C(=O)O)c4)CC3)c3ncc(Cl)cc32)cc1 [Example 271, 3-(1-(6-chloro-1-(4-(dimethylamino)phenyl)-2-oxo-1,2-dihydro-3H-imidazo[4,5-b]pyridin-3-yl)cyclopropyl)-5-fluorobenzoic acid] | < 10
12 | CN(C)C(=O)c1ccc(-n2c(=O)n(C3(c4cc(F)cc(C(=O)O)c4)CC3)c3ncc(Cl)cc32)cc1 [Example 272, 3-(1-(6-chloro-1-(4-(dimethylcarbamoyl)phenyl)-2-oxo-1,2-dihydro-3H-imidazo[4,5-b]pyridin-3-yl)cyclopropyl)-5-fluorobenzoic acid] | < 10
13 | O=C(O)c1cc(F)cc(C2(n3c(=O)n(-c4ccc(C5CCOCC5)cc4)c4cc(Cl)cnc43)CC2)c1 [Example 273, 3-(1-(6-chloro-2-oxo-1-(4-(tetrahydro-2H-pyran-4-yl)phenyl)-1,2-dihydro-3H-imidazo[4,5-b]pyridin-3-yl)cyclopropyl)-5-fluorobenzoic acid] | 10 to 100
14 | O=C(O)c1cc(F)cc(C2(n3c(=O)n(-c4ccc(N5CCOCC5)cc4)c4cc(Cl)cnc43)CC2)c1 [Example 274, 3-(1-(6-chloro-1-(4-morpholinophenyl)-2-oxo-1,2-dihydro-3H-imidazo[4,5-b]pyridin-3-yl)cyclopropyl)-5-fluorobenzoic acid] | < 10
15 | O=C(O)c1cc(F)cc(C2(n3c(=O)n(-c4ccc(C(=O)N5CC6(CCOCC6)C5)cc4)c4cc(Cl)cnc43)CC2)c1 [Example 275, 3-(1-(1-(4-(7-oxa-2-azaspiro[3.5]nonane-2-carbonyl)phenyl)-6-chloro-2-oxo-1,2-dihydro-3H-imidazo[4,5-b]pyridin-3-yl)cyclopropyl)-5-fluorobenzoic acid] | < 10
16 | O=C(O)c1cc(F)cc(C2(n3c(=O)n(-c4ccc(C(=O)N5CCCC5)cc4)c4cc(Cl)cnc43)CC2)c1 [Example 276, 3-(1-(6-chloro-2-oxo-1-(4-(pyrrolidine-1-carbonyl)phenyl)-1,2-dihydro-3H-imidazo[4,5-b]pyridin-3-yl)cyclopropyl)-5-fluorobenzoic acid] | < 10
